Where a SMILES comes first, the peptide text is derived from it. Bridges are numbered along the chain shown (N, C = ends). [ ]: non-standard residue; d: D form. The star is where a group is joined. ξ: configuration not given here. Phe(3-CF3) = N[C@@H](Cc1cccc(C(F)(F)F)c1)C(=O)O; Ala(morpholin-4-yl) = N[C@@H](CN1CCOCC1)C(=O)O; Phe(4-COOH) = N[C@@H](Cc1ccc(C(=O)O)cc1)C(=O)O; Asp(3,3-Me2) = CC(C)(C(=O)O)[C@H](N)C(=O)O; Bip = N[C@@H](Cc1ccc(-c2ccccc2)cc1)C(=O)O; Phe(3-CN) = N#Cc1cccc(C[C@H](N)C(=O)O)c1; Phe(3-Me) = Cc1cccc(C[C@H](N)C(=O)O)c1; Val(3-OH) = CC(C)(O)[C@H](N)C(=O)O; 3Pal = N[C@@H](Cc1cccnc1)C(=O)O; 4Pal = N[C@@H](Cc1ccncc1)C(=O)O; Cha = N[C@@H](CC1CCCCC1)C(=O)O; Cit = NC(=O)NCCC[C@H](N)C(=O)O; Ile(3ξ) = CCC(C)[C@H](N)C(=O)O; dCha = N[C@H](CC1CCCCC1)C(=O)O; NMeNle = CCCC[C@H](NC)C(=O)O; Carboxymethyl = O=C(O)C*; Orn = NCCC[C@H](N)C(=O)O; Pra = C#CC[C@H](N)C(=O)O; Dab = NCC[C@H](N)C(=O)O; Nva = CCC[C@H](N)C(=O)O; Abu = CC[C@H](N)C(=O)O; Dap = NC[C@H](N)C(=O)O; Propargyl = C#CC*
Biological target: T1, human PD-1 / PD-L1-Ig binding on Jurkat cell line over-expressing human PD-1 (Jurkat-PD-1) (Homo sapiens, UniProt Q15116)
T1 construct: expressed in transfected cells; host or cells: Jurkat
Test: Jurkat-PD-1 Cell Binding High-Content Screening Assay (CBA)
Type: cell-based
Settings: Jurkat-PD-1 cells, PE-labeled PD-L1-Ig 20 nM final; read-out: Jurkat HPD1_PDL1 IC50
Procedure, shortened: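 PE-PD-L1-Ig 20 nM final; cells in DMEM/10% FCS; cpd pre-incubation 2 h, 37° C; ligand 1 h; PFA fix + Hoechst 33342; high-content imaging read-out.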

T1 sequence (Q15116 25-288): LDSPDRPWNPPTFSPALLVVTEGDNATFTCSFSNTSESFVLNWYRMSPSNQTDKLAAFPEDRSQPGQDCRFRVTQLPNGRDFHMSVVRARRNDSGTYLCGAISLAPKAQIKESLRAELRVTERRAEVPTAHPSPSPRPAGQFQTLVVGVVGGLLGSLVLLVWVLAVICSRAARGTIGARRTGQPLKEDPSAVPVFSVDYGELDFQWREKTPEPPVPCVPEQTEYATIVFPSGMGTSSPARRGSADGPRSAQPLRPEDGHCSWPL

Row | Compound | IC50
1 | CC(C)[C@@H]1NC(=O)[C@H](Cc2c[nH]c3ccccc23)NC(=O)[C@H](CC(=O)O)NC(=O)[C@H](Cc2ccc(O)cc2)NC(=O)[C@H](CC(N)=O)NC(=O)CSC[C@@H](C(=O)N[C@@H](C)C(N)=O)NC(=O)[C@H]([C@@H](C)O)NC(=O)[C@H](C(C)C)NC(=O)[C@H](CC2CCCCC2)NC(=O)[C@H](CCN)NC(=O)[C@@H](CC2CCCCC2)NC(=O)[C@H](CCCN)NC(=O)[C@H](C(C)C)NC(=O)[C@H](Cc2ccc(-c3ccccc3)cc2)NC1=O [Compound 1639] ({CH2CO}-NYDWV[Bip]V[Orn][dCha][Dab][Cha]VTCA-NH2; thioether N-14) | 35.8 nM
2 | C#CC[C@H](NC(=O)[C@H](C)NC(=O)[C@@H]1CSCC(=O)N[C@@H](CN)C(=O)N[C@@H](Cc2ccc(OCC(=O)O)cc2)C(=O)N[C@@H](CC(=O)O)C(=O)N[C@@H](Cc2cccc(C)c2)C(=O)N[C@@H](C(C)C)C(=O)N[C@@H](Cc2ccc(-c3ccccc3)cc2)C(=O)N[C@@H](CCCNC(N)=O)C(=O)N[C@@H](CCCN)C(=O)N[C@H](CC(C)C)C(=O)N[C@@H](CCN)C(=O)N[C@@H](CC2CCCCC2)C(=O)N[C@@H](C(C)C)C(=O)N[C@@H]([C@@H](C)O)C(=O)N1)C(=O)O [Compound 2259] | 44.3 nM
3 | CC(C)C[C@H]1NC(=O)[C@H](CCCN)NC(=O)[C@H](CCCNC(N)=O)NC(=O)[C@H](Cc2ccc(-c3ccccc3)cc2)NC(=O)[C@H](C(C)C)NC(=O)[C@H](Cc2c[nH]c3ccccc23)NC(=O)[C@H](CC(=O)O)NC(=O)[C@H](Cc2cccc(C#N)c2)NC(=O)[C@H](CN)NC(=O)CSC[C@@H](C(=O)N[C@@H](C)C(N)=O)NC(=O)[C@H]([C@@H](C)O)NC(=O)[C@H](C(C)C)NC(=O)[C@H](CC2CCCCC2)NC(=O)[C@H](CCN)NC1=O [Compound 2093] ({CH2CO}-[Dap][Phe(3-CN)]DWV[Bip][Cit][Orn][dL][Dab][Cha]VTCA-NH2; thioether N-14) | 12 nM
4 | CCC(C)[C@@H]1NC(=O)[C@H](Cc2ccc(-c3ccccc3)cc2)NC(=O)[C@H](C(C)C)NC(=O)[C@H](Cc2c[nH]c3ccccc23)NC(=O)[C@H](CC(=O)O)NC(=O)[C@H](Cc2cccnc2)NC(=O)[C@H](CN)NC(=O)CSC[C@@H](C(=O)N[C@@H](C)C(N)=O)NC(=O)[C@H]([C@@H](C)O)NC(=O)[C@H](C(C)C)NC(=O)[C@H](CC2CCCCC2)NC(=O)[C@H](CCN)NC(=O)[C@@H](CC(C)C)NC(=O)[C@H](CCCN)NC1=O (stereo partly drawn) [Compound 2230] ({CH2CO}-[Dap][3Pal]DWV[Bip][Ile(3ξ)][Orn][dL][Dab][Cha]VTCA-NH2; thioether N-14) | 16.1 nM
5 | CCC(C)[C@@H]1NC(=O)[C@H](Cc2ccc(-c3ccccc3)cc2)NC(=O)[C@H](C(C)C)NC(=O)[C@H](Cc2cccc(C)c2)NC(=O)[C@H](CC(=O)O)NC(=O)[C@H](Cc2ccc(C(=O)O)cc2)NC(=O)[C@H](Cc2ccncc2)NC(=O)CSC[C@@H](C(=O)N[C@H](CC(N)=O)C(N)=O)NC(=O)[C@H](CO)NC(=O)[C@H](C(C)C)NC(=O)[C@H](CC2CCCCC2)NC(=O)[C@H](CCN)NC(=O)[C@@H](CC(C)C)NC(=O)[C@H](CCCN)NC1=O (stereo partly drawn) [Compound 2300] ({CH2CO}-[4Pal][Phe(4-COOH)]D[Phe(3-Me)]V[Bip][Ile(3ξ)][Orn][dL][Dab][Cha]VSC[dN]-NH2; thioether N-14) | 13.4 nM
6 | Cc1cccc(C[C@@H]2NC(=O)[C@H](CC(=O)O)NC(=O)[C@H](Cc3ccc(OCC(=O)O)cc3)NC(=O)[C@H](CN)NC(=O)CSC[C@@H](C(=O)N[C@@H](C)C(N)=O)NC(=O)[C@H](CCCCN)NC(=O)[C@H](C(C)C)NC(=O)[C@H](CC3CCCCC3)NC(=O)[C@H](CCN)NC(=O)[C@@H](CC(C)C)NC(=O)[C@H](CCCN)NC(=O)[C@H](C(C)C)NC(=O)[C@H](Cc3ccc(-c4ccccc4)cc3)NC(=O)[C@H](C(C)C)NC2=O)c1 [Compound 1755] ({CH2CO}-[Dap]Y(Carboxymethyl)D[Phe(3-Me)]V[Bip]V[Orn][dL][Dab][Cha]VKCA-NH2; thioether N-14) | 8.4 nM
7 | Cc1cccc(C[C@@H]2NC(=O)[C@H](CC(=O)O)NC(=O)[C@H](Cc3ccc(C(=O)O)cc3)NC(=O)[C@H](Cc3ccncc3)NC(=O)CSC[C@@H](C(=O)N[C@@H](CC(N)=O)C(N)=O)NC(=O)[C@H](CCC(N)=O)NC(=O)[C@H](C(C)C)NC(=O)[C@H](CC3CCCCC3)NC(=O)[C@H](CCN)NC(=O)[C@@H](CC(C)C)NC(=O)[C@H](CCCN)NC(=O)[C@H](Cc3ccc(OCC(=O)O)cc3)NC(=O)[C@H](Cc3ccc(-c4ccccc4)cc3)NC(=O)[C@H](Cc3ccc(OCC(=O)O)cc3)NC2=O)c1 [Compound 2305] ({CH2CO}-[4Pal][Phe(4-COOH)]D[Phe(3-Me)]Y(Carboxymethyl)[Bip]Y(Carboxymethyl)[Orn][dL][Dab][Cha]VQCN-NH2; thioether N-14) | 10.2 nM
8 | CC(C)C[C@H]1NC(=O)[C@H](CCCN)NC(=O)[C@H](Cc2ccc(C(=O)O)cc2)NC(=O)[C@H](Cc2ccc(-c3ccccc3)cc2)NC(=O)[C@H](Cc2ccc(-c3ccccc3)cc2)NC(=O)[C@H](Cc2cccc(C(F)(F)F)c2)NC(=O)[C@H](CC(=O)O)NC(=O)[C@H](Cc2ccc(C(=O)O)cc2)NC(=O)[C@H](CN2CCOCC2)NC(=O)CSC[C@@H](C(=O)N[C@@H](CCN)C(N)=O)NC(=O)[C@H](CCC(=O)O)NC(=O)[C@H](C(C)C)NC(=O)[C@H](CC2CCCCC2)NC(=O)[C@H](CCN)NC1=O [Example 2746] ({CH2CO}-[Ala(morpholin-4-yl)][Phe(4-COOH)]D[Phe(3-CF3)][Bip][Bip][Phe(4-COOH)][Orn][dL][Dab][Cha]VEC[Dab]-NH2; thioether N-14) | 3.7 nM
9 | Cc1cccc(C[C@@H]2NC(=O)[C@H](CC(=O)O)NC(=O)[C@H](Cc3ccncc3)NC(=O)[C@H](CN)NC(=O)CSC[C@@H](C(=O)N[C@@H](C)C(N)=O)NC(=O)[C@H]([C@@H](C)O)NC(=O)[C@H](C(C)C)NC(=O)[C@H](CC3CCCCC3)NC(=O)[C@H](Cc3cnc[nH]3)NC(=O)[C@@H](CC(C)C)NC(=O)[C@H](CCCN)NC(=O)[C@H](C(C)C)NC(=O)[C@H](Cc3ccc(-c4ccccc4)cc3)NC(=O)[C@H](C(C)C)NC2=O)c1 [Compound 1583] | 20 nM

More lines, now with the values ahead:

Row | IC50 | Compound
10 | 5 nM | C#CC[C@H](NC(=O)[C@H](CCN)NC(=O)[C@@H]1CSCC(=O)N[C@@H](CC(C)C)C(=O)N[C@@H](Cc2ccc(OCC(=O)O)cc2)C(=O)N[C@@H](CC(=O)O)C(=O)N[C@@H](Cc2cccc(C)c2)C(=O)N[C@@H](Cc2ccc(OCC(=O)O)cc2)C(=O)N[C@@H](Cc2ccc(-c3ccccc3)cc2)C(=O)N[C@@H](Cc2ccc(OCC(=O)O)cc2)C(=O)N[C@@H](CCCN)C(=O)N[C@H](CC(C)C)C(=O)N[C@@H](CCN)C(=O)N[C@@H](CC2CCCCC2)C(=O)N[C@@H](C(C)C)C(=O)N[C@@H](CCC(=O)O)C(=O)N1)C(=O)O [Compound 2707] ({CH2CO}-LY(Carboxymethyl)D[Phe(3-Me)]Y(Carboxymethyl)[Bip]Y(Carboxymethyl)[Orn][dL][Dab][Cha]VEC[Dab][Pra]-OH; thioether N-14)
11 | 8.3 nM | C#CCOc1ccc(C[C@@H]2NC(=O)[C@H](Cc3ccc(-c4ccccc4)cc3)NC(=O)[C@H](Cc3ccc(OCC(=O)O)cc3)NC(=O)[C@H](Cc3cccc(C)c3)NC(=O)[C@H](CC(=O)O)NC(=O)[C@H](Cc3ccc(OCC(=O)O)cc3)NC(=O)[C@H](CC)NC(=O)CSC[C@@H](C(=O)N[C@@H](CCN)C(N)=O)NC(=O)[C@H](CCC(=O)O)NC(=O)[C@H](C(C)C)NC(=O)[C@H](CC3CCCCC3)NC(=O)[C@H](CCN)NC(=O)[C@@H](CC(C)C)NC(=O)[C@H](CCCN)NC2=O)cc1 [Compound 1843] ({CH2CO}-[Abu]Y(Carboxymethyl)D[Phe(3-Me)]Y(Carboxymethyl)[Bip]Y(Propargyl)[Orn][dL][Dab][Cha]VEC[Dab]-NH2; thioether N-14)
12 | 4.2 nM | CCC[C@@H]1NC(=O)CSC[C@@H](C(=O)N[C@@H](CCN)C(N)=O)NC(=O)[C@H](CO)NC(=O)[C@H](C(C)(C)O)NC(=O)[C@H](CC2CCCCC2)NC(=O)[C@H](CCN)NC(=O)[C@@H](CC(C)C)NC(=O)[C@H](CCCN)NC(=O)[C@H](Cc2ccc(OCC(=O)O)cc2)NC(=O)[C@H](Cc2ccc(-c3ccccc3)cc2)NC(=O)[C@H](Cc2ccc(OCC(=O)O)cc2)NC(=O)[C@H](Cc2cccc(C)c2)NC(=O)[C@H](CC(=O)O)NC(=O)[C@H](Cc2ccc(C(=O)O)cc2)NC1=O [Compound 2080] ({CH2CO}-[Nva][Phe(4-COOH)]D[Phe(3-Me)]Y(Carboxymethyl)[Bip]Y(Carboxymethyl)[Orn][dL][Dab][Cha][Val(3-OH)]SC[Dab]-NH2; thioether N-14)
13 | 41.3 nM | CCCC[C@H]1C(=O)N[C@@H](Cc2ccc(C(=O)O)cc2)C(=O)N[C@@H](CC(=O)O)C(=O)N[C@@H](Cc2cccc(C)c2)C(=O)N[C@@H](Cc2ccc(OCC(=O)O)cc2)C(=O)N[C@@H](Cc2ccc(-c3ccccc3)cc2)C(=O)N[C@@H](Cc2ccc(OCC(=O)O)cc2)C(=O)N[C@@H](CCCN)C(=O)N[C@H](CC(C)C)C(=O)N[C@@H](CCN)C(=O)N[C@@H](CC2CCCCC2)C(=O)N[C@@H](C(C)(C)O)C(=O)N[C@@H](CCC(=O)O)C(=O)N[C@H](C(=O)N[C@@H](CCN)C(N)=O)CSCC(=O)N1C [Compound 2688] ({CH2CO}-[NMeNle][Phe(4-COOH)]D[Phe(3-Me)]Y(Carboxymethyl)[Bip]Y(Carboxymethyl)[Orn][dL][Dab][Cha][Val(3-OH)]EC[Dab]-NH2; thioether N-14)
14 | 17 nM | Cc1cccc(C[C@@H]2NC(=O)[C@H](CC(=O)O)NC(=O)[C@H](Cc3ccc(OCC(=O)O)cc3)NC(=O)[C@H](CCN)NC(=O)CSC[C@@H](C(=O)N[C@@H](CCN)C(N)=O)NC(=O)[C@H](CO)NC(=O)[C@H](C(C)(C)C(=O)O)NC(=O)[C@H](CC3CCCCC3)NC(=O)[C@H](CCN)NC(=O)[C@@H](CC(C)C)NC(=O)[C@H](CCCN)NC(=O)[C@H](Cc3ccc(OCC(=O)O)cc3)NC(=O)[C@H](Cc3ccc(-c4ccccc4)cc3)NC(=O)[C@H](Cc3ccc(OCC(=O)O)cc3)NC2=O)c1 [Compound 2070] ({CH2CO}-[Dab]Y(Carboxymethyl)D[Phe(3-Me)]Y(Carboxymethyl)[Bip]Y(Carboxymethyl)[Orn][dL][Dab][Cha][Asp(3,3-Me2)]SC[Dab]-NH2; thioether N-14)

— patent US20250163104A1, “MACROCYCLIC IMMUNOMODULATORS” (priority 2021, published 2025)
